Where a SMILES comes first, the peptide text is derived from it. The star is where a group is joined. Cbz = O=C(OCc1ccccc1)*

For data set [1], the system named is HepG2. Kind of data set: Growth inhibition of human HepG2 cells at 10 uM after 24 hrs by MTS assay relative to control. Type of data set: functional. The following applies: HepG2, 24 h, read-out: GI. In general terms: Tetrazolium assays rely on reduction of a dye to a coloured formazan, in cell work by metabolically active cells.
Data set [2] concerns RAW264.7. Kind of data set: Antiinflammatory activity in mouse RAW264.7 cells assessed as inhibition of LPS-induced NO production at 10 uM after 24 hrs by Griess reagent based assay relative to control. The format is functional. The following applies: RAW264.7, 24 h.
The subject of data set [3] is RAW264.7. Kind of data set: Antiinflammatory activity in mouse RAW264.7 cells assessed as inhibition of LPS-induced NO production after 24 hrs by Griess reagent based assay. The format is functional, cell-based. The following applies: RAW264.7, 24 h. Background: Griess reagent forms a coloured azo dye with nitrite.
In data set [4] the test system is SW480. In words: Growth inhibition of human SW480 cells at 10 uM after 24 hrs by MTS assay relative to control. The format is functional. As to conditions: SW480, 24 h, read-out: GI; call rule not given here.
In data set [5] the target is Mushroom tyrosinase (Agaricus bisporus) (UniProt O42713+Q00024+C7FF04+C7FF05). Kind of data set: Inhibition of mushroom tyrosinase at 10 uM using L-tyrosine as substrate incubated for 15 mins followed by substrate addition relative to control.
Data set [6] can be described thus: (§1) Growth inhibition of human LO2 cells at 10 uM after 24 hrs by MTS assay relative to control. As to conditions: LO2 cells, read-out: GI. The format is cell-based, L02.
Data set [7] deals with T1, Tyrosine-protein phosphatase non-receptor type 1 (Homo sapiens) (UniProt P18031).
T1 sequence (whole entry): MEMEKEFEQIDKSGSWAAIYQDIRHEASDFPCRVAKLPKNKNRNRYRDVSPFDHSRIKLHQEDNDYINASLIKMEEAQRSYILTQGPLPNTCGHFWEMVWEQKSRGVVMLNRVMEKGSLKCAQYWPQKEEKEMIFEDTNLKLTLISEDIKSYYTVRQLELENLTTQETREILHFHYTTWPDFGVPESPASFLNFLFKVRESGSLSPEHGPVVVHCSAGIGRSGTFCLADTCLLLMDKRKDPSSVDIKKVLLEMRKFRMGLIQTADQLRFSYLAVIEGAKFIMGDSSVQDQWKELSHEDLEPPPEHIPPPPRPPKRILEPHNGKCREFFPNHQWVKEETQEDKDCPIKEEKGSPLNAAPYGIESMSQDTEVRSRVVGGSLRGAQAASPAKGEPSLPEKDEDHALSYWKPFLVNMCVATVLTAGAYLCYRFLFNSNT
In words: Inhibition of recombinant human PTP1B using p-nitrophenyl phosphate as substrate at 10 uM after 30 mins relative to control.

Data set [8] relates to MCF7. In words: Growth inhibition of human MCF7 cells at 10 uM after 24 hrs by MTS assay relative to control. The format is functional. As to conditions: MCF7, 24 h, read-out: GI.
For data set [9], the species on record is Homo sapiens. In words: Inhibition of LPS-induced NF-kappaB transcription (unknown origin) expressed in human SW480 cells at 10 uM by luciferase reporter gene assay. The format is cell-based.
Data set [10] is described as follows: (§2) Growth inhibition of human HEK293T cells at 10 uM after 24 hrs by MTS assay relative to control. The format is cell-based, HEK-293T. The following applies: HEK293T cells, read-out: GI.
Data set [11] concerns MCF7. In words: Cytotoxicity against human MCF7 cells assessed as reduction in cell viability after 24 hrs by MTS assay. Type of data set: functional, cell-based. As to conditions: MCF7, 24 h.
Data set [12] concerns L02. Described as §1. Type of data set: cell-based. The following applies: l02, 24 h, 10 µM.
Data set [13] concerns SW480. Kind of data set: Cytotoxicity against human SW480 cells assessed as reduction in cell viability after 24 hrs by MTS assay. Type of data set: functional, cell-based. The following applies: SW480, 24 h.
The subject of data set [14] is HEK-293T. The data set is described as §2. As to conditions: hek-293t, 24 h, 10 µM. The format is cell-based.
Data set [15] has as its system HepG2. Kind of data set: Cytotoxicity against human HepG2 cells assessed as reduction in cell viability after 24 hrs by MTS assay. The following applies: HepG2, 24 h. The format is functional, cell-based.
Data set [16] concerns the target Mushroom tyrosinase (Agaricus bisporus, UniProt O42713+Q00024+C7FF04+C7FF05). Kind of data set: Inhibition of mushroom tyrosinase using L-tyrosine as substrate incubated for 15 mins followed by substrate addition.
For data set [17], the target named is T2, Tyrosine-protein phosphatase non-receptor type 1 (Homo sapiens, UniProt P18031).
T2 sequence (P18031 whole entry): T1 sequence (whole entry)
Kind of data set: Inhibition of recombinant human PTP1B using p-nitrophenyl phosphate as substrate after 30 mins.

The test system of data set [18] is RAW264.7. Kind of data set: Antiinflammatory activity in mouse RAW264.7 cells assessed as inhibition of LPS-induced NO production at 20 uM after 24 hrs by Griess reagent based assay relative to control. The following applies: RAW264.7, 24 h. The format is functional.
Data set [19] in a line: Inhibition of LPS-induced NF-kappaB transcription (unknown origin) expressed in human SW480 cells by luciferase reporter gene assay. Type of data set: cell-based. (A reporter such as luciferase makes a cellular process visible.)
The species named for data set [20] is Homo sapiens. Kind of data set: Inhibition of LPS-induced NF-kappaB transcription (unknown origin) expressed in human SW480 cells at 20 uM by luciferase reporter gene assay. Type of data set: cell-based.

By IC50 is commonly meant the concentration that gives 50% inhibition. In the case of `COc1c(/C=C/C(=O)c2ccc(O)cc2)ccc(O)c1O`, the inhibition of growth at 10 µM in data set [1] worked out at 4%; in data set [4] it was 9%; in data set [8], 13%. For the same compound, in data set [2], the inhibition at 10 µM was in the range of 71 to 73%. Further, the IC50 in data set [3] was found to be 8.78 µM. The inhibition in [5] came to 8%; in data set [7], 64%; in data set [9], 4%. Besides, the inhibition at 24 h, 10 µM in data set [6] was 6%; in [10], 7%.
Take `CC(C)=CCc1cc([C@@H]2CC(=O)c3c(O)cc(O)c(CC=C(C)C)c3O2)ccc1O` [LESPEDEZAFLAVANONE B]: the values for the inhibition of growth at 10 µM in [1], in data set [4] and in data set [8] were 24%, 81% and 86%, respectively. In data set [2], the inhibition at 10 µM stood at 14%. For the same compound, the IC50 in [11] is 13.1 µM; in [13], 12.5 µM. Further, the values for the inhibition in data set [5], in data set [7] and in [9] were 5%, 46% and 34%, respectively. The inhibition at 24 h, 10 µM in data set [6] came out at 12%; in data set [10] it was 6%. For the same compound, the Activity result in data set [12] and in data set [14] was “Non-Toxic” throughout.
Take `CC(C)=CCc1c(O)cc2occ(-c3ccc4c(c3O)C=CC(C)(C)O4)c(=O)c2c1O`: the inhibition of growth at 10 µM in data set [1] was 75%; in data set [4], 99%; in data set [8], 79%. For the same compound, in data set [2], the inhibition at 10 µM was 26%. Besides, the results for the IC50 in data set [15], in [11] and in data set [13] were 7.07 µM, 8.58 µM and 6.72 µM, respectively. The inhibition in data set [5] stood at 7%; in [7], 34%; in data set [9], 23%. Also, the inhibition at 24 h, 10 µM in [6] is 16%; in data set [10] it was 39%.
Turning to `CC1(C)C=Cc2cc(-c3coc4cc(O)cc(O)c4c3=O)cc(O)c2O1`, the values for the inhibition of growth at 10 µM in [1], in data set [4] and in [8] were 5%, 29% and 15%, respectively. In addition, the inhibition at 10 µM in [2] was 14%. In addition, the inhibition in data set [5] was determined as 95%; in data set [7], 58%; in data set [9], 8%. Also, the inhibition at 24 h, 10 µM was found to be 7% in [6] and 0% in data set [10]. In [16], this compound came in with an IC50 of 0.25 µM.
On to `CC(C)=CCc1cc([C@@H]2CC(=O)c3ccc(O)c(CC=C(C)C)c3O2)ccc1O` [GLABROL], for which the results for the inhibition of growth at 10 µM in data set [1], in data set [4] and in [8] were 98%, 98% and 97%, respectively. Moreover, the inhibition at 10 µM in data set [2] came to 6%. The IC50 was 2.83 µM in data set [15], 7.62 µM in [11], 0.31 µM in [17] and 5.15 µM in [13]. For the same compound, the inhibition worked out at 8% in [5], 92% in data set [7] and 21% in data set [9]. Besides, the inhibition at 24 h, 10 µM in data set [6] was 16%; in data set [10] it was 36%.
Regarding `CC1(C)C=Cc2c(O)ccc(-c3coc4cc(O)cc(O)c4c3=O)c2O1`, the inhibition of growth at 10 µM in [1] was found to be 22%; in [4], 15%; in [8], 28%. Also, in [2], the inhibition at 10 µM worked out at 21%. The inhibition in data set [5] amounted to 90%; in data set [7], 36%; in data set [9], 12%. Further, the inhibition at 24 h, 10 µM in data set [6] is 24%; in data set [10], 1%. In data set [16], this compound displayed an IC50 of 0.8 µM.
`COc1cc(/C=C/C(=O)CC(=O)/C=C/c2ccc(O)c(OC)c2)ccc1O` [CURCUMIN]: the inhibition at 20 µM in [18] amounted to 70%.
Regarding `C=C(C)[C@H](C)c1cc(/C=C/C(=O)c2ccc(O)cc2)c(OC)cc1O` [LICOCHALCONE E], the IC50 was determined as 3.83 µM in data set [19] and 9.09 µM in data set [3]. Moreover, the results for the inhibition of growth at 10 µM in [1], in data set [4] and in data set [8] were 23%, 44% and 42%, respectively. Also, the inhibition at 10 µM in data set [2] was determined as 55%. Further, the inhibition worked out at 8% in data set [5], 21% in data set [7] and 72% in data set [9]. Further, the values for the inhibition at 24 h, 10 µM in data set [6] and in data set [10] were 22% and 34%, respectively.
In [20], `CC(C)C[C@@H](C=O)NC(=O)[C@H](CC(C)C)NC(=O)[C@H](CC(C)C)NC(=O)OCc1ccccc1` (Cbz-Leu-Leu-Leu-aldehyde) had an inhibition of 70%.
Turning to `CC(C)=CCc1c(O)ccc(-c2coc3c(CC=C(C)C)c(O)cc(O)c3c2=O)c1O`, the inhibition of growth at 10 µM in [1] came to 80%; in data set [4], 98%; in data set [8], 88%. Besides, in [2], the inhibition at 10 µM amounted to 11%. For the same compound, the 50% inhibitory concentration (IC50) in data set [15] amounted to 5.66 µM; in data set [11], 7.47 µM; in data set [17], 0.5 µM; in data set [13] it was 4.62 µM. The inhibition is 7% in [5], 96% in data set [7] and 19% in data set [9]. The inhibition at 24 h, 10 µM is 20% in data set [6] and 10% in data set [10]. Further, the Activity result in data set [12] and in [14] was “Non-Toxic” throughout.
In the case of `CC1(C)C=Cc2c(ccc3c2OC[C@@H](c2ccc(O)cc2O)C3)O1` [GLABRIDIN], the inhibition of growth at 10 µM in data set [1] is 7%; in data set [4] it was 32%; in [8], 0%. Also, the inhibition at 10 µM in [2] was found to be 7%. Also, the inhibition was found to be 98% in [5], 38% in [7] and 0% in [9]. Further, the inhibition at 24 h, 10 µM in [6] was determined as 3%; in [10] it was 2%. In addition, the IC50 in [16] stood at 0.1 µM.
In the case of `CC(C)=CCc1c(O)cc2occ(-c3cc(O)c4c(c3)C=CC(C)(C)O4)c(=O)c2c1O`, the results for the inhibition of growth at 10 µM in data set [1], in data set [4] and in data set [8] were 89%, 82% and 92%, respectively. In addition, in data set [2], the inhibition at 10 µM turned out to be 0%. The IC50 turned out to be 3.54 µM in data set [15], 7.27 µM in data set [11], 1.48 µM in data set [17] and 7.87 µM in data set [13]. For the same compound, the results for the inhibition in data set [5], in data set [7] and in [9] were 1%, 92% and 14%, respectively. Further, the inhibition at 24 h, 10 µM in data set [6] came to 5%; in data set [10], 11%. The Activity entry in data set [12] and in data set [14] was “Non-Toxic” throughout.
For `CC(C)=CCc1c(O)cc(O)c2c(=O)cc(-c3ccc(O)cc3)oc12`, the inhibition of growth at 10 µM in data set [1] was 21%; in data set [4] it was 19%; in data set [8] it was 0%. In addition, in data set [2], the inhibition at 10 µM is 58%. Further, in data set [3], the IC50 was 3.83 µM. Besides, the inhibition in [5] amounted to 2%; in [7], 18%; in data set [9], 3%.
`COc1c(/C=C/C(=O)c2ccc(O)c(O)c2)ccc(O)c1CC=C(C)C`: the IC50 in [19] worked out at 2.44 µM; in data set [3] it was 9.35 µM. Moreover, the inhibition of growth at 10 µM was determined as 5% in data set [1], 21% in data set [4] and 21% in [8]. In addition, the inhibition at 10 µM in [2] came to 85%. The inhibition in data set [5] was 11%; in [7], 75%; in data set [9], 80%. Besides, the figures for the inhibition at 24 h, 10 µM in data set [6] and in data set [10] were 9% and 28%, respectively.
